Values of other authors, collected in US10570425B2, “Engineered cyanobacterium and its application for producing acetate” (National Tsing Hua University, priority 2017, dated 2020).

B1: Ec-pta: phosphate acetyltransferase Pta from Escherichia coli (protein, UniProt P0A9M8 2-714, looked up)
Phosphate acetyltransferase: SRIIMLIPTGTSVGLTSVSLGVIRAMERKGVRLSVFKPIAQPRTGGDAPDQTTTIVRANSSTTTAAEPLKMSYVEGLLSSNQKDVLMEEIVANYHANTKDAEVVLVEGLVPTRKHQFAQSLNYEIAKTLNAEIVFVMSQGTDTPEQLKERIELTRNSFGGAKNTNITGVIVNKLNAPVDEQGRTRPDLSEIFDDSSKAKVNNVDPAKLQESSPLPVLGAVPWSFDLIATRAIDMARHLNATIINEGDINTRRVKSVTFCARSIPHMLEHFRAGSLLVTSADRPDVLVAACLAAMNGVEIGALLLTGGYEMDARISKLCERAFATGLPVFMVNTNTWQTSLSLQSFNLEVPVDDHERIEKVQEYVANYINADWIESLTATSERSRRLSPPAFRYQLTELARKAGKRIVLPEGDEPRTVKAAAICAERGIATCVLLGNPAEINRVAASQGVELGAGIEIVDPEVVRESYVGRLVELRKNKGMTETVAREQLEDNVVLGTLMLEQDEVDGLVSGAVHTTANTIRPPLQLIKTAPGSSLVSSVFFMLLPEQVYVYGDCAINPDPTAEQLAEIAIQSADSAAAFGIEPRVAMLSYSTGTSGAGSDVEKVREATRLAQEKRPDLMIDGPLQYDAAVMADVAKSKAPNSPVAGRATVFIFPDLNTGNTTYKAVQRSADLISIGPMLQGMRKPVNDLSRGALVDDIVYTIALTAIQSAQQQ

Tests used:
[1] = biological target: 3-hydroxypropionaldehyde dehydrogenase (AldH) (Escherichia coli, UniProt P23883); conditions: substrate of AldH
padA = conditions: substrate of padA as titled, Table 5
[2] = system: phenylacetaldehyde dehydrogenase (PadA); conditions: substrate of padA, Table 4
[3] = biological target: acetaldehyde dehydrogenase B (AldB) (Escherichia coli, UniProt P37685); conditions: substrate of aldB
[4] = system: phosphate acetyltransferases (Pta and EutD); conditions: Acetyl-CoA forming reaction; for kcat/KmAc-P: substrate Ac-P; for kcat/KmCoA: substrate CoA

Chain of 3-hydroxypropionaldehyde dehydrogenase (AldH) (P23883 whole entry): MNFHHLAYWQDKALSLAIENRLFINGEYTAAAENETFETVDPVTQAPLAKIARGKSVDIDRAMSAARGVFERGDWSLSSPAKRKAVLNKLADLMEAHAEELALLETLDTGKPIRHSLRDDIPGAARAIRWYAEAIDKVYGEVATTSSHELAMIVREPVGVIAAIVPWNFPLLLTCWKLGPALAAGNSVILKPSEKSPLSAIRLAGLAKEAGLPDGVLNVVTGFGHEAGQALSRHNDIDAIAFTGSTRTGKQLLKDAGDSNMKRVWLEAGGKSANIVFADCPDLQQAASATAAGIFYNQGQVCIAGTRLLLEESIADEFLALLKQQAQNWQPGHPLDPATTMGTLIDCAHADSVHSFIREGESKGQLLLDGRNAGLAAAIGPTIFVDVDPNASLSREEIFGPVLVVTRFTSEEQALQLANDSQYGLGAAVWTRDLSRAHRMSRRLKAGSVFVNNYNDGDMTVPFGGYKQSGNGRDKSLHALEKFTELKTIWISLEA
Chain of acetaldehyde dehydrogenase B (AldB) (P37685 whole entry): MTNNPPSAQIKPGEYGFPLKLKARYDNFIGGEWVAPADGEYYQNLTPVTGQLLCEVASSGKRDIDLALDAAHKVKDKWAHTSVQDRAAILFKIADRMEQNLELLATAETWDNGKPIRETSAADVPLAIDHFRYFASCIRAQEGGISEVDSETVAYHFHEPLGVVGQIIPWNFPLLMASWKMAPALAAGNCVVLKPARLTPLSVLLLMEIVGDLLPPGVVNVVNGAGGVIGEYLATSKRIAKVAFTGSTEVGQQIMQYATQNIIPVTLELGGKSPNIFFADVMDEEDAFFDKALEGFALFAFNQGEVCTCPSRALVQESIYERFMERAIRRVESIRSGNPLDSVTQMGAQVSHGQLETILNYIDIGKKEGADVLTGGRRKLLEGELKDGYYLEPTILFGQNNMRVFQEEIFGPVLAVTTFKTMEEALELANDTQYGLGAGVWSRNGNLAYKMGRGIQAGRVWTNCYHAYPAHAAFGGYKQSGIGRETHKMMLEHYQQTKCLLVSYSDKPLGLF

Molecule | Km [1] | Km (padA) | Km [2] | Km [3] | kcat/KmAc-P [4] | kcat/KmCoA [4]
O=CCCO [3-Hydroxypropionaldehyde] | 490 µM | – | – | – | – | –
CC=O [Acetaldehyde] | 1000 µM | 15200 µM | 2150 µM | 2.5 µM | – | –
O=Cc1ccccc1 [Benzaldehyde] | – | 150 µM | 8 µM | – | – | –
O=CCCl [Chloroacetaldehyde] | – | – | – | 3.6 µM | – | –
CCC=O [Propionaldehyde] | 1210 µM | 240 µM | 11.6 µM | 5.8 µM | – | –
Ec-eutD: phosphate acetyltransferase EutD from Escherichia coli | – | – | – | – | 1.3 sec^−1μM^−1 | 12.6 sec^−1μM^−1
B1 | – | – | – | – | 0.25 sec^−1μM^−1 | 3.4 sec^−1μM^−1
